Reference: ChEMBL document CHEMBL1909046, “DrugMatrix in vitro pharmacology data”

Legend:
[1] = target: Sigma non-opioid intracellular receptor 1 (Homo sapiens, UniProt Q99720); assay: DRUGMATRIX: Sigma1 radioligand binding (ligand: [3H] Haloperidol); assay type: cell membranes, Jurkat, Membrane; details: jurkat; Not Active = under 50% inhibition at 10 µM
Vasopressin V1a receptor = Vasopressin V1a receptor (Homo sapiens, UniProt P37288); assay type: cell membranes, Membrane; details: hek293; note: in other assays of this panel Not Active means under 50% inhibition at 10 µM
[2] = target: C-C chemokine receptor type 2 (Homo sapiens, UniProt P41597); assay type: cell membranes, CHO-K1, Membrane; details: cho-k1; note: in other assays of this panel Not Active means under 50% inhibition at 10 µM
[3] = target: Mitogen-activated protein kinase 1 (Homo sapiens, UniProt P28482); assay: DRUGMATRIX: Protein Serine/Threonine Kinase, ERK2 enzyme inhibition (substrate: Myelin Basic Protein); design: species or system Escherichia coli; details: Not Active = under 50% inhibition at 10 µM
[4] = DRUGMATRIX: Calcium Channel Type L, Dihydropyridine radioligand binding (ligand: [3H] Nitrendipine); assay type: cell membranes, Rattus norvegicus, Wistar, Cerebral cortex, Membrane; details: Not Active = under 50% inhibition at 10 µM
[5] = DRUGMATRIX: Calcium Channel Type L, Phenylalkylamine radioligand binding (ligand: [3H] (-)-Desmethoxyverapamil (D-888)); assay type: cell membranes, Rattus norvegicus, Wistar, Brain, Membrane; details: Not Active = under 50% inhibition at 10 µM
[6] = target: T1, Alpha-1D adrenergic receptor (Homo sapiens, UniProt P25100); assay type: cell membranes, HEK293, Membrane; details: hek293; note: in other assays of this panel Not Active means under 50% inhibition at 10 µM
T1 sequence (P25100 whole entry): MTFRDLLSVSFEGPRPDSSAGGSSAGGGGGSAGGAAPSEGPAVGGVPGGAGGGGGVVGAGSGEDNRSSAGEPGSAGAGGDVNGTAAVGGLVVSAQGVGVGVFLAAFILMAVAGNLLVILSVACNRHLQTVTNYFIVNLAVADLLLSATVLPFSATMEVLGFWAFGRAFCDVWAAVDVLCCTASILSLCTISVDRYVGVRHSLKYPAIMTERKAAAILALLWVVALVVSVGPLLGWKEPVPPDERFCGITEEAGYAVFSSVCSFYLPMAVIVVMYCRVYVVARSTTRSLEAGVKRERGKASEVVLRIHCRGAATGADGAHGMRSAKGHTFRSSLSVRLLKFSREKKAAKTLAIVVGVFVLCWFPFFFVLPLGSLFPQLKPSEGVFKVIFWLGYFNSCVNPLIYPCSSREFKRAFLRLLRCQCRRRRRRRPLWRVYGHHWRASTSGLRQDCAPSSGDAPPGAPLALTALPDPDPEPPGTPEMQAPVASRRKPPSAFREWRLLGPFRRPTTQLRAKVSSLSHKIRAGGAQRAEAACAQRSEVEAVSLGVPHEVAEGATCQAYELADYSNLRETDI

[7] = target: Prostaglandin G/H synthase 1 (Homo sapiens, UniProt P23219); assay: biochemical; assay type: tissue-based, Platelet; details: platelet;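 note: inhibition of COX-1 enzyme activity, with arachidonic acid supplied as substrate; in other assays of this panel Not Active means under 50% inhibition at 10 µM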
Progesterone receptor = target: T2, Progesterone receptor (Bos taurus, UniProt Q690N0); assay: DRUGMATRIX: Progesterone radioligand binding (ligand: [3H] R-5020); assay type: tissue-based, Uterus; details: Not Active = under 50% inhibition at 10 µM; for Ki: read-out: Ki
T2 sequence (Q690N0 whole entry): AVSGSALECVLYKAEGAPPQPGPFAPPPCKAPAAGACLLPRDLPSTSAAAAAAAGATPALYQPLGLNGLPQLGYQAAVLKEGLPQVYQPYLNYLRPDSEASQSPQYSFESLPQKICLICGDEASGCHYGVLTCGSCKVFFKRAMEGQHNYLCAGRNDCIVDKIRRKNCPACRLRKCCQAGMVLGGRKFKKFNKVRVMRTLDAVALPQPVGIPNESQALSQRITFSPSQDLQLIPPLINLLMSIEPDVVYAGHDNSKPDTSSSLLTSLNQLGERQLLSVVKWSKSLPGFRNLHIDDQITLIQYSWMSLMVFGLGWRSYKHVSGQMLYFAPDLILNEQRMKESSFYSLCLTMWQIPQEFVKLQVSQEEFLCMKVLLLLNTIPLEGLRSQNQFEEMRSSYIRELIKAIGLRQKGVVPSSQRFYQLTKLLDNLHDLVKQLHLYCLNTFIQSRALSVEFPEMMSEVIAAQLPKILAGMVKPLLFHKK

Cytochrome P450 2C19 = Cytochrome P450 2C19 (Homo sapiens, UniProt P33261); details: bti-tn-5b1-4; note: in other assays of this panel Not Active means under 50% inhibition at 10 µM
[8] = DRUGMATRIX: Atrial Natriuretic Factor (ANF) radioligand binding (ligand: [125I] ANF (rat)); assay type: cell membranes, Cavia porcellus, Dunkin-Hartley, Adrenal gland, Membrane; details: Not Active = under 50% inhibition at 10 µM
[9] = target: T3, 5-hydroxytryptamine receptor 2C (Homo sapiens, UniProt P28335); assay: DRUGMATRIX: Serotonin (5-Hydroxytryptamine) 5-HT2C radioligand binding (ligand: [3H] Mesulergine); assay type: cell membranes, CHO-K1, Membrane; details: cho-k1; Not Active = under 50% inhibition at 10 µM
T3 sequence (P28335 whole entry): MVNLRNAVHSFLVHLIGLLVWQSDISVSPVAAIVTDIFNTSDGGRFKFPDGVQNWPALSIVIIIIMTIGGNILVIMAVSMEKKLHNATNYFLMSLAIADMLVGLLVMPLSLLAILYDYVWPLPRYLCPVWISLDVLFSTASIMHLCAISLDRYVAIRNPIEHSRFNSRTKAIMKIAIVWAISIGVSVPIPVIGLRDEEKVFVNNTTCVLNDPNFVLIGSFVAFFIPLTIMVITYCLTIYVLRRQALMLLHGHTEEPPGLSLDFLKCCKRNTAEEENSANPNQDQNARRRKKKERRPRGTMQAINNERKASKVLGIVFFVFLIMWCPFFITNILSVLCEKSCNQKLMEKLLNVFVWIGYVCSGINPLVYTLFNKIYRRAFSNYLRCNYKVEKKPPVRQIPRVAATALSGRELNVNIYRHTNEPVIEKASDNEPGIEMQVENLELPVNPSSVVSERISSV

[10] = target: T4, Neuropeptide Y receptor type 1 (Homo sapiens, UniProt P25929); assay type: cell membranes, Membrane; details: sk-n-mc; note: in other assays of this panel Not Active means under 50% inhibition at 10 µM
T4 sequence (P25929 whole entry): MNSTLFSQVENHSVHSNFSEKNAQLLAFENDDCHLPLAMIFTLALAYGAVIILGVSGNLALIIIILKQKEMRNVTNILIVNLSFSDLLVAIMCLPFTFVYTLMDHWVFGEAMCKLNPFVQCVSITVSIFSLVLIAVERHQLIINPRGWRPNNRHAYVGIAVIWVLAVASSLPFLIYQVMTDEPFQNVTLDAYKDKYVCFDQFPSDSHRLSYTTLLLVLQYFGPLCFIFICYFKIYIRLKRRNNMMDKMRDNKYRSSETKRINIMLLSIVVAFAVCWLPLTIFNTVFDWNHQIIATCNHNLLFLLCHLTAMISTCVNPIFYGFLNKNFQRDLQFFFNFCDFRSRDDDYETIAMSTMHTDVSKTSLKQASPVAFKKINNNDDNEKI

Sequence of Mitogen-activated protein kinase 1 (P28482 whole entry): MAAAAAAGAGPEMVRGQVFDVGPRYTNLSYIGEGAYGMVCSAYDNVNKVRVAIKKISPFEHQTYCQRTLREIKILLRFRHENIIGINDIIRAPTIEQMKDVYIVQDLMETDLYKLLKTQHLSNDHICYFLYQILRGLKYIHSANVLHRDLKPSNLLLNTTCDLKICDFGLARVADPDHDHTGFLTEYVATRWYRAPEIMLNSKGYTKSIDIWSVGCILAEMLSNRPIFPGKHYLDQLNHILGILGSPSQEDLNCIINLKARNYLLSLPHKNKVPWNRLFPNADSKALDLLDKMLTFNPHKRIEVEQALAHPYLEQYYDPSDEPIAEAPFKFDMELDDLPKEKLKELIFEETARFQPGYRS
Sequence of Sigma non-opioid intracellular receptor 1 (Q99720 whole entry): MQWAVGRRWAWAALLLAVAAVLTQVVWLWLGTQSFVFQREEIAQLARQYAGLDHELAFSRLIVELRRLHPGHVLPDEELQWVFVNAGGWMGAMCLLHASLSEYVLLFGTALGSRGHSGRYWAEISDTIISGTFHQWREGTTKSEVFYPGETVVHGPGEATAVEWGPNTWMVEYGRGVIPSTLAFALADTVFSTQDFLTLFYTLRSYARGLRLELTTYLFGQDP
Sequence of C-C chemokine receptor type 2 (P41597 whole entry): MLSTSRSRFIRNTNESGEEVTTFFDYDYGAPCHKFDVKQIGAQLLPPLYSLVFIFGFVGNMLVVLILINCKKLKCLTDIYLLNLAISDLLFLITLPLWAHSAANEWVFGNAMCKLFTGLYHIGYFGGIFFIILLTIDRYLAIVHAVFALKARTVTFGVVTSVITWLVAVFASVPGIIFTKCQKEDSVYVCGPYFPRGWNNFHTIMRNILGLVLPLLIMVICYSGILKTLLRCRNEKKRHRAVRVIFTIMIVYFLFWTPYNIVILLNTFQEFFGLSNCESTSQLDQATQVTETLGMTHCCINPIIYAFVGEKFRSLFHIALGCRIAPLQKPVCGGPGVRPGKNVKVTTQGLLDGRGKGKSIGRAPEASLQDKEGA
Sequence of Prostaglandin G/H synthase 1 (P23219 whole entry): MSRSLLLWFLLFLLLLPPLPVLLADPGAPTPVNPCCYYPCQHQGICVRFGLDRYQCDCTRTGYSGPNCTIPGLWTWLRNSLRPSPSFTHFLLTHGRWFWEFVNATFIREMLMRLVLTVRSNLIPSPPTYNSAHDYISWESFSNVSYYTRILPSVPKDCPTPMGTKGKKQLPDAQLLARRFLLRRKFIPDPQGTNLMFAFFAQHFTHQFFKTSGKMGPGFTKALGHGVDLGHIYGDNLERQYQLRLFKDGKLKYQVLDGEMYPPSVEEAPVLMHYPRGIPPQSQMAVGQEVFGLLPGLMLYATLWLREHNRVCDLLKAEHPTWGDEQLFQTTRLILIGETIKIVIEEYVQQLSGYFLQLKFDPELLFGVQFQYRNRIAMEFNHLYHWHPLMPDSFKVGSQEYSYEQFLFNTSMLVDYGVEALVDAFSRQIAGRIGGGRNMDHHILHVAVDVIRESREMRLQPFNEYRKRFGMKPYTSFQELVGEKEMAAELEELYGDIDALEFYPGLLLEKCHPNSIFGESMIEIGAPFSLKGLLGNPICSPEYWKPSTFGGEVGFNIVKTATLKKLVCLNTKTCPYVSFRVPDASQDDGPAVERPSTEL
Sequence of Vasopressin V1a receptor (P37288 whole entry): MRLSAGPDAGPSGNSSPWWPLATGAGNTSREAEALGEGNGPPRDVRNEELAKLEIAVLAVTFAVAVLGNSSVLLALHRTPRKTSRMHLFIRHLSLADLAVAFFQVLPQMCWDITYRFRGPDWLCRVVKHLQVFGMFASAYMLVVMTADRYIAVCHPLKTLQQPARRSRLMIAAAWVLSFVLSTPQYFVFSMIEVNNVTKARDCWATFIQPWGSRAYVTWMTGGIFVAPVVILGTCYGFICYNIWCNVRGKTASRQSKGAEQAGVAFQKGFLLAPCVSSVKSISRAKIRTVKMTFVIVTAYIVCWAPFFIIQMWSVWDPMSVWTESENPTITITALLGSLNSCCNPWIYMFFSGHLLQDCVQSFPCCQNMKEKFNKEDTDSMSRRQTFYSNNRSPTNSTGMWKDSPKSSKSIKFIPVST
Sequence of Cytochrome P450 2C19 (P33261 whole entry): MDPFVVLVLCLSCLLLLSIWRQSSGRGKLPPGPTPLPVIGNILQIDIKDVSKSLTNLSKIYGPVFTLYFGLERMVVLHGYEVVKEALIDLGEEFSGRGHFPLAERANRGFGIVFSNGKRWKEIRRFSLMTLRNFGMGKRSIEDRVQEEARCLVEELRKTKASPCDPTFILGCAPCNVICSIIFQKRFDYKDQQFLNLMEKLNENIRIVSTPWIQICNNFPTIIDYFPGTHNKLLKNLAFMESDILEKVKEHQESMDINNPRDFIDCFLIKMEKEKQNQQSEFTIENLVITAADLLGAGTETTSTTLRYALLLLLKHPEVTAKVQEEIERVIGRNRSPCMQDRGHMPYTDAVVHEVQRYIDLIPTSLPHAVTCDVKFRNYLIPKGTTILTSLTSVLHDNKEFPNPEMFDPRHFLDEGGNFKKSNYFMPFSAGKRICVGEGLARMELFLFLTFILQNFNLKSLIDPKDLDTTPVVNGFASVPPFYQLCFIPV

N=C(N)NCCCCNC(=N)N.O=S(=O)(O)O [ARCAINE SULFATE]
IC50 [1]: Not Active | IC50 (Vasopressin V1a receptor): Not Active | IC50 [2]: Not Active | IC50 [3]: Not Active | IC50 [4]: Not Active | Ki [4]: Not Active | IC50 [5]: Not Active | Ki [5]: Not Active | IC50 [6]: Not Active | IC50 [7]: Not Active | IC50 (Progesterone receptor): Not Active | IC50 (Cytochrome P450 2C19): Not Active | Ki (Cytochrome P450 2C19): Not Active | IC50 [8]: Not Active | Ki [8]: Not Active | IC50 [9]: Not Active | IC50 [10]: Not Active

CC(=O)OCC(=O)[C@@]1(OC(C)=O)[C@@H](C)C[C@H]2[C@@H]3C[C@H](F)C4=CC(=O)C=C[C@]4(C)[C@@]3(F)[C@@H](O)C[C@@]21C [DIFLORASONE DIACETATE]
IC50 [1]: Not Active | IC50 (Vasopressin V1a receptor): Not Active | IC50 [2]: Not Active | IC50 [3]: Not Active | IC50 [4]: Not Active | Ki [4]: Not Active | IC50 [5]: Not Active | Ki [5]: Not Active | IC50 [6]: Not Active | IC50 [7]: Not Active | IC50 (Progesterone receptor; read-out: IC50): 0.116 µM | Ki (Progesterone receptor): 0.015 µM | IC50 (Cytochrome P450 2C19): Not Active | Ki (Cytochrome P450 2C19): Not Active | IC50 [8]: Not Active | Ki [8]: Not Active | IC50 [9]: Not Active | IC50 [10]: Not Active

CNC(=O)Oc1ccc2c(c1)[C@]1(C)CCN(C)[C@@H]1N2C [PHYSOSTIGMINE]
IC50 [1]: Not Active | IC50 (Vasopressin V1a receptor): Not Active | IC50 [2]: Not Active | IC50 [3]: Not Active | IC50 [4]: Not Active | Ki [4]: Not Active | IC50 [5]: Not Active | Ki [5]: Not Active | IC50 [6]: Not Active | IC50 [7]: Not Active | IC50 (Progesterone receptor): Not Active | IC50 (Cytochrome P450 2C19): Not Active | Ki (Cytochrome P450 2C19): Not Active | IC50 [8]: Not Active | Ki [8]: Not Active | IC50 [9]: Not Active | IC50 [10]: Not Active

O=P1(NCCCl)OCCCN1CCCl (stereo not drawn) [IFOSFAMIDE]
IC50 [1]: Not Active | IC50 (Vasopressin V1a receptor): Not Active | IC50 [2]: Not Active | IC50 [3]: Not Active | IC50 [4]: Not Active | Ki [4]: Not Active | IC50 [5]: Not Active | Ki [5]: Not Active | IC50 [6]: Not Active | IC50 [7]: Not Active | IC50 (Progesterone receptor): Not Active | IC50 [8]: Not Active | Ki [8]: Not Active | IC50 [9]: Not Active | IC50 [10]: Not Active

CC(=O)O[C@]1(C(C)=O)CC[C@H]2[C@@H]3C=C(Cl)C4=CC(=O)CC[C@]4(C)[C@H]3CC[C@@]21C [CHLORMADINONE ACETATE]
IC50 [1]: Not Active | IC50 (Vasopressin V1a receptor): Not Active | IC50 [2]: Not Active | IC50 [3]: Not Active | IC50 [4]: Not Active | Ki [4]: Not Active | IC50 [5]: Not Active | Ki [5]: Not Active | IC50 [6]: Not Active | IC50 [7]: Not Active | IC50 (Progesterone receptor; read-out: IC50): 0.00526 µM | Ki (Progesterone receptor): 0.000687 µM | IC50 [8]: Not Active | Ki [8]: Not Active | IC50 [9]: Not Active | IC50 [10]: Not Active

C=C(C)[C@@H]1[C@H]2OC(=O)[C@@H]1[C@]1(O)C[C@H]3O[C@]34C(=O)O[C@H]2[C@]14C [PICROTOXININ]
IC50 [1]: Not Active | IC50 (Vasopressin V1a receptor): Not Active | IC50 [2]: Not Active | IC50 [3]: Not Active | IC50 [4]: Not Active | Ki [4]: Not Active | IC50 [5]: Not Active | Ki [5]: Not Active | IC50 [6]: Not Active | IC50 [7]: Not Active | IC50 (Progesterone receptor): Not Active | IC50 [8]: Not Active | Ki [8]: Not Active | IC50 [9]: Not Active | IC50 [10]: Not Active

O=C(O)c1cn(C2CC2)c2cc(N3CCNCC3)c(F)cc2c1=O [CIPROFLOXACIN]
IC50 [1]: Not Active | IC50 (Vasopressin V1a receptor): Not Active | IC50 [2]: Not Active | IC50 [3]: Not Active | IC50 [4]: Not Active | Ki [4]: Not Active | IC50 [5]: Not Active | Ki [5]: Not Active | IC50 [6]: Not Active | IC50 [7]: Not Active | IC50 (Progesterone receptor): Not Active | IC50 [8]: Not Active | Ki [8]: Not Active | IC50 [9]: Not Active | IC50 [10]: Not Active

NCC(=O)O [GLYCINE]
IC50 [1]: Not Active | IC50 (Vasopressin V1a receptor): Not Active | IC50 [2]: Not Active | IC50 [3]: Not Active | IC50 [4]: Not Active | Ki [4]: Not Active | IC50 [5]: Not Active | Ki [5]: Not Active | IC50 [6]: Not Active | IC50 [7]: Not Active | IC50 (Progesterone receptor): Not Active | IC50 [8]: Not Active | Ki [8]: Not Active | IC50 [9]: Not Active | IC50 [10]: Not Active

O=C1OC2(c3ccc(O)cc3Oc3cc(O)ccc32)c2ccccc21 [FLUORESCEIN]
IC50 [1]: Not Active | IC50 (Vasopressin V1a receptor): Not Active | IC50 [2]: Not Active | IC50 [3]: Not Active | IC50 [4]: Not Active | Ki [4]: Not Active | IC50 [5]: Not Active | Ki [5]: Not Active | IC50 [6]: Not Active | IC50 [7]: Not Active | IC50 (Progesterone receptor): Not Active | IC50 [8]: Not Active | Ki [8]: Not Active | IC50 [9]: Not Active | IC50 [10]: Not Active
